Source: patent US3948933A, “Pyrrolo[1,2-c]imidazolediones” (priority 1973, dated 1976)
Where two headings read alike, the source gives them in different places.

Assays:
[1] = test system: secondary conditioned response; experiment: inhibition of the secondary conditioned response in rats (anxiolytic and tranquilizing properties); format: in vivo; settings: 60 mg/kg i.p.
Method: (§1) The depressant activity of the new pyrroloimidazole-diones on the C.N.S. of animals is evidenced by testing the compounds in mice according to the Irwin method. The tranquilizing and anxiolytic activity is evaluated on the basis of the secondary conditioned response in rats.

C.N.S. = experiment: Irwin test (Irwin method) in mice, depressant activity on the C.N.S.; format: in vivo; settings: Mus musculus, ip
Method: as §1
In experiments in mice with the representative compound α-2-(o-chlorophenyl)-5,6,7,7a-tetrahydro-1,3(2H)-dioxo-1H-pyrrolo[1,2-c]imidazolo-5-carboxylic acid, the following ED50 values were determined for parameters of the Irwin test which are related to sedative and hypnotic activities.

[2] = acute toxicity (LD50) in mice; settings: mouse, in vivo, ip

For `CCN(CC)C(=O)C1CCC2C(=O)N(c3ccccc3)C(=O)N12` (single isomer, unassigned) [Example 21, α(+)-5-diethylcarbamyl-2-phenyl-5,6,7,7a-tetrahydro-1H-pyrrolo[1,2-c]imidazole-1,3(2H)-dione], the Deconditioned/Conditioned ([1]; 60 mg/kg) was 7/10.

For `CCN(CC)C(=O)C1CCC2C(=O)N(c3ccccc3)C(=O)N12` (single isomer, unassigned) [Example 22, α(-)-5-diethylcarbamyl-2-phenyl-5,6,7,7a-tetrahydro-1H-pyrrolo[1,2-c]imidazole-1,3(2H)-dione], the Deconditioned/Conditioned ([1]; 60 mg/kg) was 6/10.

With `CCN(CC)C(=O)C1CCC2C(=O)N(c3ccccc3)C(=O)N12` (stereo not drawn) [Example 12, α-5-diethylcarbamyl-2-phenyl-5,6,7,7a-tetrahydro-1H-pyrrolo[1,2-c]imidazole-1,3(2H)-dione] the Deconditioned/Conditioned [1] was 8/10.

In the case of `CCN(CC)C(=O)C1CCC2C(=O)N(c3cccc(Cl)c3)C(=O)N12` (stereo not drawn) [Example 13, α-5-diethylcarbamyl-2-(m-chlorophenyl)-5,6,7,7a-tetrahydro-1H-pyrrolo[1,2-c]imidazole-1,3(2H)-dione], the Deconditioned/Conditioned [1] is reported as 7/10.

In the case of `CCNC(=O)C1CCC2C(=O)N(c3ccccc3)C(=O)N12` (stereo not drawn) [Example 14, α-5-ethylcarbamyl-2-phenyl-5,6,7,7a-tetrahydro-1H-pyrrolo[1,2-c]imidazole-1,3(2H)-dione], the Deconditioned/Conditioned [1] is reported as 7/10.

With `CCN(CC)C(=O)C1CCC2C(=O)N(c3cccc(C(F)(F)F)c3)C(=O)N12` (centres unmarked) [Example 37, 5-diethylcarbamyl-2-(m-trifluoromethyl)phenyl-5,6,7,7a-tetrahydro-1H-pyrrolo-[1,2-c]imidazole-1,3(2H)-dione] the Deconditioned/Conditioned [1] was 10/10.

In the case of `O=C(O)C1CCC2C(=O)N(c3ccccc3Cl)C(=O)N12` (stereo not drawn) [α-2-(o-chlorophenyl)-5,6,7,7a-tetrahydro-1,3(2H)-dioxo-1H-pyrrolo[1,2-c]imidazolo-5-carboxylic acid], the ED50 (C.N.S.; read-out: ED50, Impairment of motor coordination) is reported as 100 mg/kg, the ED50 (C.N.S.; read-out: ED50, Minimal hypnotic dose) is reported as 200 mg/kg and the ED50 (C.N.S.; read-out: ED50, Righting reflex) is reported as 80 mg/kg. For the same compound, the ED50 (C.N.S.; read-out: ED50, Spontaneous activity) was 100 mg/kg and the LD50 [2] was about 700 mg/kg.
